# Target: T1, MCRA (myosin-cross-reactive antigen; FAD-dependent fatty acid hydratase) (Bifidobacterium breve, UniProt F1CWI2)
# T1 construct: 1878 bp gene), N-terminal 6x His tag, pET28 (pBBI2), E. coli BL21 Star, HisTrap purified, ~66 kDa on SDS-PAGE; primers begin at MYYSSGNYE
# T1 sequence (F1CWI2 1-625): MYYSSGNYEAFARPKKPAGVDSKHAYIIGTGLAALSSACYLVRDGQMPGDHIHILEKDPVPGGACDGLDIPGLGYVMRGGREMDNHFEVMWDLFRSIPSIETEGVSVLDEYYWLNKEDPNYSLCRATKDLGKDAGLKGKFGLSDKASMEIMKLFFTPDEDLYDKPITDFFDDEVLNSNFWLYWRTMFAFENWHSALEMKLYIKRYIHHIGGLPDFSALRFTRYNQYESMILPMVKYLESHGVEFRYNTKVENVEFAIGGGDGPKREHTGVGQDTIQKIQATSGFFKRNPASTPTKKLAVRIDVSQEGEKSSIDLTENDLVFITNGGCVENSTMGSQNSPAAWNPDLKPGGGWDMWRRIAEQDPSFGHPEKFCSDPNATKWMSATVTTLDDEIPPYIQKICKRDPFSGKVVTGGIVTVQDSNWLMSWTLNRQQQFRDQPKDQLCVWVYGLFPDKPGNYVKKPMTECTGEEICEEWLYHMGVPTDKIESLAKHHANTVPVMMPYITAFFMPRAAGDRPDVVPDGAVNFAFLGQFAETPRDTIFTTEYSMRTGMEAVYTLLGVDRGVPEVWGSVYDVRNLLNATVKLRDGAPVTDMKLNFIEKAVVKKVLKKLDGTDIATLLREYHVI
# Assay: UV-Vis absorption spectrum of purified protein and of supernatant after heat denaturation
# Format: binding
# Settings: non-covalent, co-purified; flavin-like maxima ~450 and 370 nm; FAD identity rests on spectrum and analogy to S. pyogenes MCRA (FMN also run as reference)
smiles,measurement,value
Cc1cc2nc3c(=O)[nH]c(=O)nc-3n(C[C@H](O)[C@H](O)[C@H](O)COP(=O)(O)OP(=O)(O)OC[C@H]3O[C@@H](n4cnc5c(N)ncnc54)[C@H](O)[C@@H]3O)c2cc1C [FAD],UV-Vis absorption spectrum of purified protein and of supernatant after heat den,flavin cofactor is released in the solution upon protein denaturation by heat

# — PMC3063827, “Myosin-cross-reactive antigen (MCRA) protein from Bifidobacterium breve is a FAD-dependent fatty acid hydratase which has a function in stress protection” (BMC Biochemistry, 2011)
